# According to US20230233704A1, “HYDROGEL COMPOSITION AND ASSOCIATED METHOD OF USE” (Quthero, Inc., priority 2017, published 2023):
# Assays:
# [1] = system: Akt and MAPKp42/44 phosphorylation; assay: Western blotting of HEKs under H2O2 stress with soluble QHREDGS peptide; format: cell-based, human; conditions: 500 μM H2O2, 15 min, soluble peptide 100 μM / 650 μM
# Protocol: (§1) HEKs were seeded at a sub-confluent density in a 96-well plate for the cell integrity assay or a 24-well plate for Western blot analysis, and serum starved overnight. The HEKs were then pretreated with soluble QHREDGS (100 μM for Low and 650 μM for High) for 2 h. The cells were then exposed to fresh EpiLife basal medium supplemented with 500 μM H2O2 in the presence or absence of QHREDGS peptide. For the cell integrity assay, the cells were stained using the EarlyTox™ Cell Integrity kit (Molecular Devices) after 2 h of H2O2 treatment. For the Western analysis, another set of wells were seeded in parallel for the Ctrl, Low and High conditions and protein samples were collected after 0, 15 min and 2 h of H2O2 treatment.
# Protein was isolated from keratinocytes in the 24-well plate after H2O2 treatment using 60-80 μL Lysis Buffer per well (10× Cell Lysis Buffer, Cell Signaling Technology; complete Mini, EDTA-free protease inhibitor cocktail tablet, Roche; in ddH2O). Proteins were separated by electrophoresis in Novex Tris-Glycine gels (Life technologies) and transferred using the iBlot (Life technologies) to a PVDF iBlot Transfer Stack (Life technologies). Membranes were probed for phospho-p44/42 MAPK (pMAPKp42/44), p44/42 MAPK (MAPKp42/44), phospho-Akt, Akt, or GAPDH as a loading control (Millipore). All primary antibodies were purchased from Cell Signaling unless stated otherwise. […]
# [2] = system: HEKs; assay: EarlyTox Cell Integrity assay after H2O2 treatment of HEKs with soluble QHREDGS peptide; format: cell-based, human; conditions: 500 μM H2O2 for 2 h; soluble peptide 100 μM / 650 μM, 2 h pre-conditioning
# Protocol: as §1
# The EarlyTox™ Cell Integrity Kit (Molecular Devices, R8213) is based on two nuclear dyes: live red dye is cell permeant and marks both live and dead cells (Excitation: 622 nm/Emission: 645 nm); dead green dye is cell impermeant and stains only cells with damaged outer membranes (Excitation: 503 nm/Emission: 526 nm). […] The plate was then incubated at 37° C. for 30 min and imaged using a SpectraMax i3 plate reader (Molecular Devices). The percentage of viable cells after H2O2 treatment on chitosan-collagen films in the presence or absence of QHREDGS peptide was normalized to the viability percentage of non-treated controls on the same coating film condition.
# [3] = system: Primary neonatal human epithelial keratinocytes (HEKs); assay: BrdU proliferation assay of HEKs with soluble QHREDGS peptide; format: cell-based; conditions: soluble peptide Low 100 μM, High 650 μM; 8 h BrdU
# Protocol: (§2) The effect of the QHREDGS peptide as in the soluble form was assessed on HEKs in vitro. 24- or 96-well plates were coated with 0.05 mg/mL type I collagen (BD Biosciences) in 0.02 N acetic acid overnight and then rinsed once with phosphate buffered saline (PBS) (Lonza). HEKs were seeded in complete EpiLife medium and attached for at least 2 h. 100 μM or 650 μM QHREDGS was supplemented to the EpiLife medium as Low or High dosage, respectively.
# HEKs were seeded at a density of 1×10^4 cells/cm^2 in collagen-coated 96-well plates. After 4 h, media was removed and replenished with EpiLife media supplemented with 20 μM bromodeoxyuridine (BrdU) (Sigma Aldrich) in the presence or absence of QHREDGS peptide. After incubating for 8 h, proliferating HEKs were identified by BrdU staining. Briefly, HEKs were fixed with 4% paraformaldehyde (PFA), permeablized with 0.25% triton X, treated with DNase for 30 min at 37° C., and blocked with 5% bovine serum albumin (BSA). The HEKs were then incubated with a rat anti-BrdU antibody (AbD Serotec) overnight at 4° C. followed by an anti-rat TRITC-labelled secondary antibody (Jackson Immuno Research). BrdU-positive cells were counted in 5 randomly chosen fields under 20× magnification and then normalized to the total number of cells labelled by 4′,6-diamidino-2-phenylindole (DAPI) counterstaining.
# [4] = system: HEKs; assay: HEK migration on collagen coated surfaces with soluble QHREDGS peptide; format: cell-based, human; conditions: soluble peptide 100 μM or 650 μM; collagen-coated surface; 24 h
# Protocol: as §2
# Culture-inserts were purchased from Ibidi® and carefully placed on the chitosan-collagen films in 24-wells. HEKs were seeded in complete EpiLife medium at 0.3-0.4×10^6 cells/mL with 70-100 μL per chamber and allowed to attach for 2 h. The culture-inserts were then carefully lifted and the unattached HEKs were immediately removed by rinsing twice using warm PBS. Basal EpiLife medium was then added to the wells and the wells were imaged every 2 h for 8 h and the next day using the SpectraMax i3 plate reader. Confluent HEK monolayers were wounded (time 0) and maintained for 24 h in EpiLife basal medium with 0.12 mM Ca2+. The wounds were outlined and the area at the various time points was normalized to the initial wound size (time 0). After 24 h, HEKs were fixed with 4% paraformaldehyde.
substance,measurement,setting,value
QHREDGS [QHREDGS peptide],phosphorylation of Akt and MAPKp42/44,[1],increased the phosphorylation of Akt and MAPKp42/44 and the increase was dose-dependent
same,percentage of viable HEKs under oxidative stress,[2],significant dose-dependent increase
same,percentage of proliferating HEKs (BrdU incorporation),[3],not affected
same,HEK migration rate,[4],No significant difference
